Source: patent US20060276464A1, “Diarylsulfone sulfonamides and use thereof” (Wyeth, priority 2005, published 2006)
Several values for one entry are separate records, joined by “and”; a condition that tells them apart may be missing. Equal entries are not always repeated. Where two headings read alike, the source gives them in different places.

Key:
[1] = biological target: T1, SFRP-1 (Homo sapiens, UniProt Q8N474); assay: Cell-based assay for in vitro measurement of SFRP-1/SARP2 antagonist activity (U2OS cells co-transfected with 16x TCF-tk-Luciferase reporter, Wnt and hSFRP-1); conditions: for fold induction at 10 µM / fold induction at 15 µM: U2OS; for fold induction at 10 µM: read-out: Fold Induction with SFRP-1, U2OS cells, single dose 10 μM, luciferase reporter, fold induction over SFRP-1 control;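 as to all read-outs here: U2OS cells co-transfected with a TCF-tk luciferase reporter, a Wnt vector, hSFRP-1 or empty vector and CMV-βgal, luciferase luminescence read in cell lysates alongside βgal activity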
T1 sequence (Q8N474 32-314): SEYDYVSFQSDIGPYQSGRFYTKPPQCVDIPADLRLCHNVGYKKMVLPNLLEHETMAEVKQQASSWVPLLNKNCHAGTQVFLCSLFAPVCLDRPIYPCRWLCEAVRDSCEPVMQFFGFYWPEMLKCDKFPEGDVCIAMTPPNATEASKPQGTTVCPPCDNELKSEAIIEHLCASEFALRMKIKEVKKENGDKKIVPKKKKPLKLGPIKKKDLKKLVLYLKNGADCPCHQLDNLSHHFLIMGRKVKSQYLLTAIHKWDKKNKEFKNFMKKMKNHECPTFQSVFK

[2] = biological target: T1, SFRP-1; assay: Fluorescence polarization binding assay (competitive displacement of a probe compound from SFRP-1); conditions: fluorescence anisotropy, 45 nM SFRP-1, 20 nM probe;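 also: test compound competes with a fluorescent probe held by SFRP-1, seen as a drop in probe anisotropy after incubation in darkness, with anisotropy as function of rising compound dose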
[3] = read-out: Fold Induction with SFRP-1, Conc 15 μM, single dose, luciferase reporter, fold induction over SFRP-1 control, cells with SFRP-1
[4] = read-out: Fold Induction without SFRP-1, Conc 15 μM, single dose, luciferase reporter, cells without SFRP-1 (specificity control)

fold induction at 10 µM [1]	IC50 [2]	melting point [°C]	EC50 [1] [nM]	fold induction at 15 µM ([1]; read-out: Fold Induction with SFRP-1, Conc 15 μM, with SFRP-1, fold induction over SFRP-1 control, single dose)	fold induction at 15 µM ([1]; read-out: Fold Induction without SFRP-1, Conc 15 μM, without SFRP-1, single dose)	fold induction at 15 µM [1, 3]	fold induction at 15 µM [1, 4]	Compound
4.1	800 nM	90	–	–	–	–	–	CC(C)c1ccc(S(=O)(=O)c2ccccc2)cc1S(=O)(=O)NC1C[C@H]2CC[C@@H](C1)N2C.Cl (relative stereo) [Example 860, 2-Isopropyl-N-[(1R*,5S*)-8-methyl-8-azabicyclo[3.2.1]oct-3-yl]-5-(phenylsulfonyl)benzenesulfonamide monohydrochloride]
–	300 nM	154 to 157	1350	–	–	–	–	CN1[C@@H]2CC[C@H]1CC(NS(=O)(=O)c1cc(S(=O)(=O)c3ccccc3)ccc1C(F)(F)F)C2 (relative stereo) [Example 1035, N-[(1R*, 5S*)-8-Methyl-8-azabicyclo[3.2.1]oct-3-yl]-5-(phenylsulphonyl)-2-(trifluoromethyl)benzenesulfonamide]
–	6000 nM	55 to 60	–	1.8	1.1	–	–	Cc1ccc(S(=O)(=O)c2cc3c(c(S(=O)(=O)NCCc4ccccc4F)c2)CCCC3)cc1 [Example 441, N-[2-(2-Fluorophenyl)ethyl]-3-[(4-methylphenyl)sulfonyl]-5,6,7,8-tetrahydronaphthalene-1-sulfonamide]
–	1000 nM	131 to 133	–	–	–	3.1	1.1	CCCc1ccc(S(=O)(=O)c2ccccc2)cc1S(=O)(=O)NC1CCOCC1 [Example 551, 5-(Phenylsulfonyl)-2-propyl-N-(tetrahydro-2H-pyran-4-yl)benzenesulfonamide]
–	700 nM and 1100 nM	100 to 102	–	–	–	3.1	1.2	CCCc1ccc(S(=O)(=O)c2ccccc2)cc1S(=O)(=O)NCCc1ccccn1 [Example 555, 5-(Phenylsulfonyl)-2-propyl-N-(2-pyridin-2-ylethyl)benzenesulfonamide]
–	300 nM	143 to 146	–	–	–	4	1.2	CCCc1ccc(S(=O)(=O)c2ccccc2)cc1S(=O)(=O)NCCCn1ccnc1 [Example 556, N-[3-(1H-Imidazol-1-yl)propyl]-5-(phenylsulfonyl)-2-propylbenzenesulfonamide]
–	700 nM	128 to 130	–	–	–	1.8	1.1	CCCc1ccc(S(=O)(=O)c2ccccc2)cc1S(=O)(=O)NC1CCN(C(=O)OC(C)(C)C)CC1 [Example 558, tert-Butyl 4-({[5-(phenylsulfonyl)-2-propylphenyl]sulfonyl}amino)piperidine-1-carboxylate]
–	–	215 to 217	–	–	–	2.8	1.1	CC(C)c1cc(C(C)C)c(S(=O)(=O)c2ccccc2)cc1S(=O)(=O)NC1Cc2ccccc2C1 [Example 618, N-(2,3-Dihydro-1H-inden-2-yl)-2,4-diisopropyl-5-(phenylsulfonyl)benzenesulfonamide]
–	–	154 to 156	–	–	–	1.3	1.1	CC(C)c1cc(C(C)C)c(S(=O)(=O)c2ccc(F)cc2)cc1S(=O)(=O)NCCc1ccccc1 [Example 619, 5-[(4-Fluorophenyl)sulfonyl]-2,4-diisopropyl-N-(2-phenylethyl)benzenesulfonamide]
–	–	202 to 205	–	–	–	1.2	1	CC(C)c1cc(C(C)C)c(S(=O)(=O)c2ccc(F)cc2)cc1S(=O)(=O)NC1CCCC1 [Example 621, N-Cyclopentyl-5-[(4-fluorophenyl)sulfonyl]-2,4-diisopropylbenzenesulfonamide]
–	–	210 to 211	–	–	–	1.5	1	CC(C)c1cc(C(C)C)c(S(=O)(=O)c2ccc(F)cc2)cc1S(=O)(=O)NCCc1ccncc1 [Example 633, 5-[(4-Fluorophenyl)sulfonyl]-2,4-diisopropyl-N-(2-pyridin-4-ylethyl)benzenesulfonamide]
–	–	202 to 204	–	–	–	3	1	CC(C)c1cc(C(C)C)c(S(=O)(=O)c2ccc(F)cc2)cc1S(=O)(=O)NC1Cc2ccccc2C1 [Example 634, N-(2,3-Dihydro-1H-inden-2-yl)-5-[(4-fluorophenyl)sulfonyl]-2,4-diisopropylbenzenesulfonamide]
1.6	–	181 to 183	–	–	–	–	–	COc1ccc(S(=O)(=O)c2ccccc2)cc1S(=O)(=O)NCCc1cccnc1 [Example 678, 2-Methoxy-5-(phenylsulfonyl)-N-(2-pyridin-3-ylethyl)benzenesulfonamide]
1.2	–	176 to 178	–	–	–	–	–	COc1ccc(S(=O)(=O)c2ccccc2)cc1S(=O)(=O)NC1CCOCC1 [Example 689, 2-Methoxy-5-(phenylsulfonyl)-N-(tetrahydro-2H-pyran-4-yl)benzenesulfonamide]
–	150 nM	–	366	–	–	–	–	CNC(=O)CN1CCC(NS(=O)(=O)c2cc(S(=O)(=O)c3ccccc3)ccc2C(F)(F)F)CC1 [Example 1083, N-methyl-2-[4-({[5-(phenylsulfonyl)-2-(trifluoromethyl)phenyl]sulfonyl}amino)piperidin-1-yl]acetamide]
–	150 nM	–	746	–	–	–	–	CN(C)C(=O)CN1CCC(NS(=O)(=O)c2cc(S(=O)(=O)c3ccccc3)ccc2C(F)(F)F)CC1 [Example 1085, N,N-dimethyl-2-[4-({[5-(phenylsulfonyl)-2-(trifluoromethyl)phenyl]sulfonyl}amino)piperidin-1-yl]acetamide]
–	270 nM	–	492	–	–	–	–	CC(C)NC(=O)CN1CCC(NS(=O)(=O)c2cc(S(=O)(=O)c3ccccc3)ccc2C(F)(F)F)CC1 [Example 1086, N-isopropyl-2-[4-({[5-(phenylsulfonyl)-2-(trifluoromethyl)phenyl]sulfonyl}amino)piperidin-1-yl]acetamide]
–	130 nM	–	746	–	–	–	–	O=C(CN1CCC(NS(=O)(=O)c2cc(S(=O)(=O)c3ccccc3)ccc2C(F)(F)F)CC1)N1CCOCC1 [Example 1087, N-[1-(2-morpholin-4-yl-2-oxoethyl)piperidin-4-yl]-5-(phenylsulfonyl)-2-(trifluoromethyl)benzenesulfonamide]
–	60 nM	–	393	–	–	–	–	O=C(c1cscn1)N1CCC(NS(=O)(=O)c2cc(S(=O)(=O)c3ccccc3)ccc2C(F)(F)F)CC1 [Example 1090, 5-(phenylsulfonyl)-N-[1-(1,3-thiazol-4-ylcarbonyl)piperidin-4-yl]-2-(trifluoromethyl)benzenesulfonamide]
10.4	110 nM	–	–	–	–	–	–	O=S(=O)(NC1Cc2ccc(Br)cc2C1)c1cc(S(=O)(=O)c2ccccc2)ccc1C(F)(F)F (centres unmarked) [Example 1094, N-(5-bromo-2,3-dihydro-1H-inden-2-yl)-5-(phenylsulfonyl)-2-(trifluoromethyl)benzenesulfonamide]
–	60 nM	–	374	–	–	–	–	CC(C)(C)OC(=O)N1CCC[C@H]1C(=O)N1CCC(NS(=O)(=O)c2cc(S(=O)(=O)c3cccc(C#N)c3)ccc2C(F)(F)F)CC1 [Example 1095, tert-butyl (2S)-2-{[4-({[5-[(3-cyanophenyl)sulfonyl]-2-(trifluoromethyl)phenyl]sulfonyl}amino)piperidin-1-yl]carbonyl}pyrrolidine-1-carboxylate]
